Read-outs that look alike come from different tables or passages of the source.
What was measured:
[1] = Incubation in the small intestinal contents of rats; format: in vitro ADME; settings: rat small intestinal contents; for release of RLZ in the small intestinal contents: Supplementary Figure S2; for change in concentration in small intestinal contents: 12 h
Experimental: (§1) Male Sprague-Dawley rats (250–260 g) were euthanized using CO2 gas, collecting the intestinal tract contents separately from the small intestine and cecum. The cecal contents were collected in an atmospheric bag (AtmosBag, Sigma, St. Louis, MO, USA) filled with N2 gas. The contents were suspended in pH 6.8 isotonic phosphate buffer (20%, w/v). To 5 mL of the cecal and small intestinal suspensions, each solution (5 mL) of RAS, SAR, and SGR (2.0 mM) dissolved of pH 6.8 isotonic phosphate buffer was added, and then incubated at 37 °C. Incubation with the cecal contents was conducted in the bag filled with N2 gas. A 0.5 mL portion of the mixtures was transferred to a microtube, followed by centrifugation at 10,000× g at 4 °C for 10 min. Supernatants (0.3 mL) were subjected to extraction with EA (0.3 mL) and subsequent centrifugation at 10,000× g at 4 °C for 7 min. The organic layer (0.2 mL) transferred to a new microtube was evaporated, followed by the addition of mobile phase A (0.2 mL).

[2] = Incubation in the cecal contents of rats (conversion to RLZ); format: in vitro ADME, rat; settings: for conversion to RLZ in cecal contents (in words): 1 mM, 10% cecal contents, anaerobic
Experimental: as §1

[3] = Distribution coefficient (log D6.8), 1-octanol/pH 6.8 isotonic phosphate buffer; format: physicochemical; settings: 1-octanol/isotonic phosphate buffer (pH 6.8)
Experimental: To measure distribution coefficients of test compounds in 1-octanol/pH 6.8 isotonic phosphate buffer system, 1-octanol and pH 6.8 isotonic phosphate buffer was pre-saturated with each other. […] Distribution of test compounds in the organic phase/aqueous phase was determined by quantifying the concentration of each test compound in the organic or aqueous phase using a UV-Vis spectrophotometer (Shimadzu, Tokyo, Japan) at 263 nm. The following equation was employed to calculate the distribution coefficients (log D6.8). In the equation, CO is the initial concentration of a compound in the 1-octanol phase or aqueous phase; Cw is the equilibrium concentration of a compound in the aqueous phase; and COc is the equilibrium concentration of a compound in 1-octanol: log D6.8=log(COc/CW)=log(COc/(CO−COc]

[4] = test system: DNBS-induced rat colitis; experiment: DNBS-induced rat colitis, anticolitic effects; format: in vivo, Sprague-Dawley rats
Experimental: (§2) Experimental colitis was induced in rats as previously described. […] The rats in each group were treated orally once daily, and the medication began three days after the induction of inflammation, and continued for six days. Twenty-four hours after the last medication, the anticolitic effects of drugs were evaluated assessing macroscopic and microscopic indices. Colonic-damage scores (CDS) were assigned using the modified scoring system shown in Supplementary Table S1. Colonic damage was scored using 4 independent observers blinded to the treatment conditions. Myeloperoxidase (MPO) activity was determined in the inflamed distal colon (4 cm) as previously described.
To prepare samples for Western blot analysis, tissue (distal colon) samples (0.2 g) were minced and homogenized in 2.0 mL of pre-chilled radioimmunoprecipitation assay (RIPA) buffer, which was agitated on ice for 0.5 h, and then centrifuged at 10,000× g at 4 °C for 10 min. The centrifuged lysates were subjected to protein quantification using the bicinchoninic acid reagent (Thermo Fisher Scientific, Waltham, MA, USA). SDS-PAGE on a 7.5 or 10% gel was used for Western blot analysis of tissue lysates. To detect glycogen synthase (GS), phosphorylated GS (p-GS), cyclooxygenase (COX)-2, and inducible nitric oxide synthase (iNOS), anti-GS (Santa Cruz Biotechnology, Dallas, TX, USA), anti-p-GS (Cell Signaling Technology, Danvers, MA, USA), anti-COX-2 (sc-365374, Santa Cruz Biotechnology), and anti-iNOS (NOS-2) antibody (sc-7271, Santa Cruz Biotechnology) were used. SuperSignal chemiluminescence substrate (Thermo Fisher Scientific, Waltham, MA, USA) was used to visualize bands. α-Tubulin (Santa Cruz Biotechnology) was used as a loading control. The Western blot images were quantified using Image Lab software (version 5.2 build 14; Bio-Rad, Hercules, CA, USA). The mean of the quantified values was presented with the Western blot images in the figures (n = 3 for cell experiments, n = 5 for animal experiments).
ELISA kits were used to determine the level of CINC-3 and IL-10 in the inflamed distal colon as described previously. The ELISA was performed according to the manufacturer’s instructions.

[5] = test system: GSK3β; experiment: p-GS level in the inflamed distal colon (Western blot); format: in vivo, Sprague-Dawley rats; settings: oral once daily for 6 days
Experimental: as §2
To prepare samples for Western blot analysis, tissue (distal colon) samples (0.2 g) were minced and homogenized in 2.0 mL of pre-chilled radioimmunoprecipitation assay (RIPA) buffer, which was agitated on ice for 0.5 h, and then centrifuged at 10,000× g at 4 °C for 10 min. The centrifuged lysates were subjected to protein quantification using the bicinchoninic acid reagent (Thermo Fisher Scientific, Waltham, MA, USA). […] The Western blot images were quantified using Image Lab software (version 5.2 build 14; Bio-Rad, Hercules, CA, USA). The mean of the quantified values was presented with the Western blot images in the figures (n = 3 for cell experiments, n = 5 for animal experiments).

[6] = RLZ concentration in blood (plasma) after oral administration; format: in vivo, Sprague-Dawley rats
Experimental: (§3) The plasma (0.25 mL) was extracted with EA (0.7 mL), and the organic layer (0.5 mL) was evaporated and dissolved in mobile phase A or B (0.1 mL). After filtration through a membrane filter (0.45 μm), the filtrate (20 μL) was injected to HPLC. To determine the concentrations of SAR and RAS in the blood, MeOH (0.9 mL) was added to the plasma (0.1 mL) and centrifuged at 10,000× g at 4 °C for 10 min. After filtration of the supernatants through a membrane filter (0.45 μm), the filtrate (20 μL) was injected to HPLC.

[7] = 1-octanol/pH 6.8 buffer; cited from earlier work
[8] = Concentration of the conjugates in the blood after oral administration; format: in vivo, Sprague-Dawley rats; settings: equimolar dose, 4, 8, 12 h, Supplementary Figure S4
Experimental: as §3, with “Male Sprague-Dawley rats fasted for 24 h except for water. […] At 4, 8, and 12 h after the oral treatment, the plasma (0.3 mL) was obtained from the blood samples (collected via cardiac puncture) centrifuged at 10,000× g at 4 °C for 10 min. The” for “The”

[9] = cited from earlier work
[10] = Chemical stability in pH 1.2 and pH 6.8 buffers; format: physicochemical; settings: 0.1 mM, 12 h
Experimental: To test the chemical stabilities of SAR and SGR, the two compounds (0.1 mM) were incubated for 12 h in pH 1.2 HCl-NaCl buffer and pH 6.8 isotonic phosphate buffer, and change in the drug concentrations was monitored using HPLC analysis.

[11] = test system: Caco-2 cell monolayer; experiment: Cell permeability assay using Caco-2 monolayers; format: in vitro ADME; settings: 500 µM apical, up to 24 h, compared with RAS
Experimental: Caco-2 cells (4 × 10^5 per insert) were seeded in Transwell 6-well inserts with a pore size of 0.4 μm (SPL Inc., Houston, TX, USA). DMEM containing 1% penicillin/streptomycin was added to the basolateral (3.0 mL) and apical (insert) compartments (2.0 mL). The cells were grown until the cell monolayer’s transepithelial electrical resistance value (EMD Millipore, Billerica, MA, USA) reached 2000 Ω.cm^2. […] At appropriate time intervals, the drug concentration in the basolateral compartment was determined using HPLC.

[12] = oral once daily for 6 days, ELISA
[13] = SAR L and H doses, dose-dependent, Western blot

Row | Compound | release of RLZ in the small intestinal contents [1] | melting point | conversion to RLZ in cecal contents (in words) [2] | logD at 12 h [3] | level of IL-10 in the inflamed colon [4, 12] | level of p-GS in the inflamed colon [5] | conjugate (prodrug) in the blood [8] | change in concentration in buffer solutions [10] | change in concentration in small intestinal contents [1] | also measured
1 | N[C@@H](CC(=O)O)C(=O)Nc1nc2ccc(OC(F)(F)F)cc2s1 [AR, N-(L-aspart-1-yl)riluzole] | released a substantial amount of RLZ | 163 °C | conversion percentage to RLZ was lower than that of SAR | 0.8 | – | – | – | – | – | –
2 | N[C@@H](CCC(=O)O)C(=O)Nc1nc2ccc(OC(F)(F)F)cc2s1 [GR, N-(L-glutam-1-yl)riluzole] | released a substantial amount of RLZ | – | – | 1 | – | – | – | – | – | –
3 | O=C(O)c1cc(/N=N/c2nc3ccc(OC(F)(F)F)cc3s2)ccc1O [RAS, reference compound] | – | – | – | – | further augmented | substantially diminished | detected | – | – | peak blood concentration of RLZ relative to that after oral RLZ ([6]; oral, equimolar doses (10 mg/kg RLZ)): approximately one-fifth; distribution coefficient (log D6.8) [7]: 2.1; peak blood concentration of RLZ relative to that after oral RLZ [9]: approximately one-fifth
4 | O=C(O)CCC(=O)N[C@@H](CC(=O)O)C(=O)Nc1nc2ccc(OC(F)(F)F)cc2s1 [SAR, (N-succinyl-L-aspart-1-yl)riluzole] | – | 202 °C (dec.) | readily converted to RLZ in a time-dependent manner | -2.1 | further augmented | substantially diminished | not detectable | No significant change | No significant change | MPO activity in the inflamed distal colon ([4]; SAR L and H doses, dose-dependent): lowered; CINC-3 level in the inflamed distal colon ([4]; SAR L and H doses, dose-dependent, ELISA): lowered; COX-2 level in the inflamed distal colon [4, 13]: lowered; iNOS level in the inflamed distal colon [4, 13]: lowered; colonic damage and inflammation compared with SSZ ([4]; SAR even at lower dose vs SSZ 30 mg/kg): more effective than SSZ; all anticolitic indices compared with RAS ([4]; equimolar dose (equivalent to 10 mg/kg RLZ)): significantly superior to RAS; colonic damage (CDS, H&E staining) ([4]; oral once daily for 6 days, SAR equivalent to 5 (L) and 10 (H) mg/kg RLZ): mitigated the pathological state of the inflamed colon at both doses; permeation through Caco-2 cell monolayer [11]: less efficient than RAS; systemic absorption of RLZ (RLZ in blood, in words) ([6]; oral SAR 19.2 mg/kg): barely detectable; maximal plasma concentration of RLZ relative to oral RAS ([6]; oral, equimolar dose): approximately one-seventh; AR detected during incubation of SAR with the cecal contents ([2]; cecal contents): no AR was detected
5 | O=C(O)CCC(=O)N[C@@H](CCC(=O)O)C(=O)Nc1nc2ccc(OC(F)(F)F)cc2s1 [SGR, (N-succinyl-L-glutam-1-yl)riluzole] | – | – | resistant to cecal conversion of RLZ | -2 | – | – | – | No significant change | No significant change | –

From PMC10675528 (Pharmaceutics, 2023)
